Values joined by “and” are separate entries in the source; they are usually repeats but may differ in a detail not shown here. Identical values can stand only once.
Columns and labels:
[1] = system: [3H]-ADMA transport across the blood-brain and blood-CSF barriers; assay: self-inhibition, in situ perfusion: [^3H]-ADMA with 100 μM unlabelled ADMA; format: in vivo, mouse; conditions: male, Balb/c, mouse, other: in situ brain perfusion, with unlabelled ADMA 100 µM, [3H] ADMA + [14C] Sucrose + 100uM un-labelled ADMA, 10 mins, Balb/c ♂, 5ml/min, mean
Method: (§1) Self-inhibition experiments were also performed. […] Cross-competition experiments were also performed.
(§2) The percentage change in the RTissue uptake values achieved in the absence or presence of an unlabelled inhibitor can be calculated by means of Eq 4.
(§3) %change=RTissue−RInhibition/RTissue×100 Eq 4
(§4) We define RInhibition as the RTissue uptake in the presence of an inhibitor in the artificial plasma.
(§5) A decrease in the uptake of radiolabelled solute in the presence of unlabelled inhibitor is indicative of a saturable influx transport system. Conversely, an increase in the uptake of radiolabelled solute in the presence of unlabelled inhibitor is indicative of a saturable efflux transport system.

[2] = cross-inhibition, in situ perfusion: [^3H]-ADMA with 100 μM unlabelled L-arginine; format: in vivo, mouse; conditions: male, Balb/c, mouse, brain homogenate, other: in situ brain perfusion, with 100 µM unlabelled L-arginine, [3H] ADMA + [14C] Sucrose + 100uM Arg, 10 mins, Balb/c ♂, 5ml/min; mean; read-out: uptake, homogenate
Method: as §1, §2, §3, §4, §5

[3] = system: [3H]-ADMA transport across the blood-brain and blood-CSF barriers; assay: as above; format: in vivo, mouse; conditions: male, Balb/c, mouse, other: in situ brain perfusion, with 100 µM unlabelled L-arginine, [3H] ADMA + [14C] Sucrose + 100uM Arg, 10 mins, Balb/c ♂, 5ml/min
Method: as §1, §2, §3, §4, §5

[4] = system: [^3H]-ADMA transport across the blood-brain and blood-CSF barriers; assay: as above; format: in vivo, mouse; conditions: [3H] ADMA + [14C] Sucrose + 100uM Arg, 10 mins, Balb/c ♂, 5ml/min; individual mice
Method: as §1, §2, §3, §4, §5

[5] = in situ brain/choroid plexus perfusion: CNS uptake of [^3H]-arginine, [^3H]-ADMA and [^14C]-sucrose (multiple-time and single-time uptake analysis); conditions: for Kp at 30 min / Kp at 20 min: male, BALB/c, mouse, in vivo; for Kp at 20 min: tissue or CSF to plasma ratio (mean), uncorrected, given as fraction
Method: All animals used in procedures were adult male BALB/c mice (between 23 g and 25 g) sourced from Harlan Laboratories, Oxon, UK, unless otherwise stated.
Animals were weighed immediately before the administration of the anaesthetic to ensure correct dosage. Domitor® (medetomidine hydrochloride) and Vetalar® (ketamine) were both purchased from Harlan Laboratories (Cambridge, UK). All animals were terminally anaesthetised (2 mg/kg Domitor® and 150 mg/kg Vetalar® injected intraperitoneally), and a lack of self-righting and paw-withdrawal reflexes (as surrogate indicators of consciousness) thoroughly checked prior to and during all procedures. If needed, additional anaesthetic was administered via the same route. […] At the end of the in situ brain perfusion procedure the animal was killed by decapitated under non-recovery anaesthesia. Animals were heparinised with 100 units heparin (in 0.9% m/v NaCl(aq), Harlan Laboratories; Oxon, UK), administered via the intraperitoneal route prior to surgery.
The in situ brain/choroid plexus perfusion method is designed to directly perfuse the brain with artificial plasma via a cannula placed in the heart. Artificial plasma is prepared to mimic the ionic composition of blood, and transporter inhibitors can be added in known concentrations and delivered to the brain for defined periods of time.
The left ventricle of the heart was cannulated with a 25G x 10 mm butterfly-winged needle connected to the perfusion circuit. […] The right atrium of the heart was sectioned to allow outflow of the artificial plasma. […] Radiolabelled and unlabelled test molecules were infused into the inflowing artificial plasma for periods up to 30 minutes.
At the set perfusion time a CSF sample was taken by inserting a pulled glass micropipette connected to silicon tubing and a syringe into the cisterna magna. Gentle suction was applied, and CSF was withdrawn. Only clear CSF samples were processed and taken for analysis. Samples contaminated with blood were discarded. The animal was then decapitated and the brain removed. Specific brain samples including the circumventricular organs (CVOs) were taken using a Leica S4E L2 stereomicroscope (Leica; Buckinghamshire, UK). The brain samples included the frontal cortex, caudate nucleus, occipital cortex, hippocampus, hypothalamus, thalamus, pons and cerebellum. The CVOs included the choroid plexus, pituitary gland and pineal gland.
All samples (brain regions, capillary depletion brain homogenate, pellet and supernatant, CVOs, CSF and plasma samples) were solubilised in 0.5 mL tissue solubiliser (Solvable; Perkin-Elmer; Boston, MA, USA). After incubating the samples at room temperature for 48 h, 4 mL scintillation fluid (Lumasafe®; Perkin-Elmer; Boston, MA, USA) was added to each before vigorous vortexing.

## OC[C@H]1O[C@@](CO)(O[C@H]2O[C@H](CO)[C@@H](O)[C@H](O)[C@H]2O)[C@@H](O)[C@@H]1O [[^14C]-sucrose, reference compound]
[1]; CSF, read-out: uptake into CSF
  Kp at 10 min, 62.5 nM: 0.138
[1]; pituitary gland, read-out: uptake into pituitary gland
  Kp at 10 min, 62.5 nM: 0.0955
[2]
  Kp at 10 min, 62.5 nM: 0.0365
[3]; choroid plexus, individual mice, read-out: uptake into choroid plexus
  Kp at 10 min, 62.5 nM: 0.14
[3]; choroid plexus, mean, read-out: uptake into choroid plexus
  Kp at 10 min, 62.5 nM: 0.145
[3]; hypothalamus, mean, read-out: uptake into hypothalamus
  Kp at 10 min, 62.5 nM: 0.0327
[3]; pituitary gland, mean, read-out: uptake into pituitary gland
  Kp at 10 min, 62.5 nM: 0.113
[3]; pons, mean, read-out: uptake into pons
  Kp at 10 min, 62.5 nM: 0.0462
[4]
  uptake, pellet: 0.001402
[5]; 30 mins, Balb/c ♂, 5ml/min, single mouse
  pineal gland: [14C] Sucrose: 0.7704 and 1.659 and 1.346
[5]; caudate nucleus: [14C] Sucrose, 30 mins, Balb/c ♂, 5ml/min, mean
  Kp at 30 min: 0.0778
[5]; cerebellum: [14C] Sucrose, 30 mins, Balb/c ♂, 5ml/min, mean
  Kp at 30 min: 0.059
[5]; cerebellum: [14C] Sucrose, 30 mins, Balb/c ♂, 5ml/min, single mouse
  Kp at 30 min: 0.0613
[5]; pineal gland: [14C] Sucrose, 30 mins, Balb/c ♂, 5ml/min, mean
  Kp at 30 min: 1.05
[5]; pons: [14C] Sucrose, 30 mins, Balb/c ♂, 5ml/min, mean
  Kp at 30 min: 0.124
[5]; thalamus: [14C] Sucrose, 30 mins, Balb/c ♂, 5ml/min, mean
  Kp at 30 min: 0.0965
[5]; caudate nucleus
  Kp at 20 min: 0.0663
[5]; cerebellum
  Kp at 20 min: 0.0456
[5]; frontal cortex
  Kp at 20 min: 0.0797
[5]; hippocampus
  Kp at 20 min: 0.0477
[5]; hypothalamus
  Kp at 20 min: 0.0657
[5]; pineal gland
  Kp at 20 min: 0.524
[5]; pons
  Kp at 20 min: 0.118
[5]; thalamus
  Kp at 20 min: 0.0672

From paper PMC11501026, “L-Arginine and asymmetric dimethylarginine (ADMA) transport across the mouse blood-brain and blood-CSF barriers: Evidence of saturable transport at both interfaces and CNS to blood efflux” (PLOS ONE, 2024)
